In publication PMC12920294, “Optimizing uPAR-targeting radiopeptides for improved tissue distribution: progress towards radionuclide therapy” (European Journal of Nuclear Medicine and Molecular Imaging, 2025):
Like-named read-outs stand apart in the source and are kept apart here.

Columns and labels:
[1] = biological target: human serum albumin (Homo sapiens, UniProt P02768); type: in vitro ADME; set-up: tissue Stiftung Blutspende SRK Aargau-Solothurn, Switzerland; host or cells: human blood plasma
Procedure: (§1) The albumin-binding properties of the radiopeptides in mouse and human blood plasma were determined using an ultrafiltration assay with Amicon centrifugal filters (cut-off of 10 kDa; Merck Millipore) as previously reported (Supplementary Material). A fixed amount of the respective radiopeptide (~ 300 kBq, 15 µL, 6 pmol) was added to a defined volume (150 µL) of mouse and human blood plasma dilutions to obtain [mouse serum albumin]-to-[radiopeptide] molar concentration ratios of 0.01‒12,500 and [human serum albumin]-to-[radiopeptide] molar concentration ratios of 0.01‒20,000. The data were analyzed using a semi-logarithmic Hill plot with the maximum binding set as 100% using GraphPad Prism software (version 10.1.1). The half-maximum binding (B50 values) of each radiopeptide was expressed as relative values using the inverse ratios with the value of [^177Lu]Lu-uPAR-11 set as 1.0. […] The samples were incubated at 37 °C for 30 min. Ice-cold PBS (150 µL, pH 7.4) was added before loading the blood plasma samples on Amicon centrifugal filters (cut-off of 10 kDa; Merck Millipore) followed by centrifugation (14000 rcf, 4 °C, 30 min) to allow the separation of the plasma protein-bound from the unbound (free) fractions of each sample. The inserts of the filter devices were inverted and centrifuged at 200 rcf for 3 min to recover the protein-bound radiopeptide. The activity of the protein-bound fraction was measured using a γ-counter (Wallac Wizard 1480, PerkinElmer). The activity in the filtrate and filter unit was counted in the γ-counter and the counts were combined, assuming that the fraction retained in the filter membrane was not bound to proteins. The protein-bound fraction was expressed as percentage of the whole activity (i.e. plasma protein-bound activity, activity measured in the filtrate and activity measured in the filter (set as 100%)). The data were analyzed using a semi-logarithmic plot assuming a maximum binding of 100%. The Hill equation was fitted to the data points, and the half-maximum binding (B50) was determined based on the obtained binding curves using GraphPad Prism software (version 10.1.1). To quantitatively express and compare the albumin-binding properties of the radiopeptides, the relative albumin-binding affinity was expressed as the inverse half-maximal-binding (B50) of the respective radioligand to that of [^177Lu]Lu-uPAR-11, which was set as 1.0. The results were presented as the value obtained from the average curve from 3 independent experiments.

[2] = type: in vitro ADME; conditions: 1 µM
Procedure: The ^177Lu-labeled peptides (50 MBq/nmol) were incubated in mouse or human blood plasma (10 MBq/200 µL) over an incubation period of 24 h at 37 °C. Aliquots and control samples of the radiopeptides diluted in saline were analyzed after 1 h, 4 h and 24 h using thin layer chromatography (TLC) as previously reported (Supplementary Material). The distribution coefficients (logD values) of the ^177Lu-labeled peptides (50 MBq/nmol) were determined using a shake-flask method according to a previously published procedure (Supplementary Material).
Methods: A sample of each radiopeptide (50 MBq/nmol) was added to mouse blood plasma (Lot: 32321, Rockland Immunochemicals Inc., USA) or to human blood plasma (Stiftung Blutspende SRK Aargau-Solothurn, Switzerland) to obtain an activity concentration of 10 MBq/200 µL. The test samples were incubated at 37 °C for up to 24 h. Control samples referred to the radiopeptides which were instead diluted in saline at an activity concentration of 10 MBq/200 µL. Aliquots of each sample (2 µL, ~100 kBq) were taken after 1 h, 4 h and 24 h and investigated by means of thin layer chromatography (TLC). The employed method involved reversed-phase TLC plates (MERCK Analytical Chromatography, TLC Silica gel 60 RP-18 F254s) as stationary phase and ACN/citrate buffer (3:7; v/v; pH 5.5) as mobile phase. After the eluent reached the front line, the TLC plates were dried and exposed to a phosphor screen (Super resolution screen PSR10450013, PerkinElmer) for 1 min. The respective screen was developed using a storage phosphor system (Cyclone Plus, PerkinElmer) and analyzed using the OptiQuant Software (version 5.0, Bright Instrument Co Ltd., PerkinElmer).

[3] = system: HEK-uPAR xenograft-bearing mice; conditions: mouse, in vivo
Procedure: Single-photon emission computed tomography/computed tomography (SPECT/CT) experiments were performed using a small-animal SPECT/CT camera (NanoSPECT/CTTM, Mediso Medical Imaging Systems, Budapest, Hungary) as described previously (Supplementary Material). HEK-uPAR xenografted nude mice were scanned at 1 h, 4 h, 24 h […] after injection of the respective radiopeptide (25 MBq, 0.5 nmol, in 100 μL 0.9% NaCl containing 0.05% bovine serum albumin (BSA)) The images were prepared using VivoQuant post-processing software (version 3.5, inviCRO Imaging Services and Software, Boston, USA). A Gauss post-reconstruction filter (full width at half maximum, 1.0 mm) was applied and the scale of activity was set as indicated on the images (minimum value = 0.2 Bq/voxel, maximum value = 20 Bq/voxel). Methods: SPECT/CT experiments were performed with CD1 nude mice (Crl:CD1-Foxn1^nu) approximately 3-9 weeks after HEK-uPAR cell inoculation. The mice were scanned 1 h, 4 h and 24 h post injection (p.i.) of the respective radiopeptide (25 MBq, 0.5 nmol, 100 μL, diluted in 0.9% NaCl containing 0.05% bovine serum albumin (BSA)). Imaging studies were performed using a four-head, multiplexing, multi-pinhole small-animal SPECT/CT camera (NanoSPECT/CT^TM, Mediso Medical Imaging Systems, Budapest, Hungary). Each head was outfitted with a tungsten-based aperture of nine 1.4 mm-diameter pinholes and a thickness of 10 mm. CT scans of 7-9 min duration were followed by SPECT scans of 45-50 min. The images were acquired using Nucline Software (version 10.2, Mediso Ltd., Budapest, Hungary). The real-time CT reconstruction used a cone-beam filtered backprojection. The reconstruction of SPECT data was performed with HiSPECT software (version 1.4.3049, […] GmbH, Göttingen, Germany) using γ-energies of 56.1 keV (± 10%), 112.9 keV (± 10%) and 208.4 keV (± 10%) for lutetium-177. The images were prepared using VivoQuant post-processing software (version 3.5, inviCRO Imaging Services and Software, Boston, USA). A Gauss post-reconstruction filter (full width at half maximum, 1.0 mm) was applied and the scale of activity was set as indicated on the images (minimum value = 0.2 Bq/voxel, maximum value = 20 Bq/voxel).

[4] = biological target: T1, mouse serum albumin (Mus musculus, UniProt P07724); type: in vitro ADME
T1 construct: tissue Rockland Immunochemicals Inc., USA Lot: 32321; host or cells: mouse blood plasma
Procedure: as §1

human serum albumin, sequence (P02768 25-609): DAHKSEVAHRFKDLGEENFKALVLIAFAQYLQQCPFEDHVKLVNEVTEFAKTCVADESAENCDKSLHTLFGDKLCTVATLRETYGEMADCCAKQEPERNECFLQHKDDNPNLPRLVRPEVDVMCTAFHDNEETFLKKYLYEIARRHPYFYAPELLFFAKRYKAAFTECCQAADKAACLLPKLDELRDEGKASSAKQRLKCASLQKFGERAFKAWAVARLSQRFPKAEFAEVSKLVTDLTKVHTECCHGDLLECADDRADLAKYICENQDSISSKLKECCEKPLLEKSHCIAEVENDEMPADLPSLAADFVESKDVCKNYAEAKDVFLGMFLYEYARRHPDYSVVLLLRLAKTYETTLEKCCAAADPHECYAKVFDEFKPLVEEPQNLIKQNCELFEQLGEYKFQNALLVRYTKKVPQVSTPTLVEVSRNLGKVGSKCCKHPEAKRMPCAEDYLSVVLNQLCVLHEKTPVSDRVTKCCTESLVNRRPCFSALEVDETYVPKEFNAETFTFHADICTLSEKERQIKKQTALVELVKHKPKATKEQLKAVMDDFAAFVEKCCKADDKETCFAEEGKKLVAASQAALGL
T1 sequence (P07724 25-608): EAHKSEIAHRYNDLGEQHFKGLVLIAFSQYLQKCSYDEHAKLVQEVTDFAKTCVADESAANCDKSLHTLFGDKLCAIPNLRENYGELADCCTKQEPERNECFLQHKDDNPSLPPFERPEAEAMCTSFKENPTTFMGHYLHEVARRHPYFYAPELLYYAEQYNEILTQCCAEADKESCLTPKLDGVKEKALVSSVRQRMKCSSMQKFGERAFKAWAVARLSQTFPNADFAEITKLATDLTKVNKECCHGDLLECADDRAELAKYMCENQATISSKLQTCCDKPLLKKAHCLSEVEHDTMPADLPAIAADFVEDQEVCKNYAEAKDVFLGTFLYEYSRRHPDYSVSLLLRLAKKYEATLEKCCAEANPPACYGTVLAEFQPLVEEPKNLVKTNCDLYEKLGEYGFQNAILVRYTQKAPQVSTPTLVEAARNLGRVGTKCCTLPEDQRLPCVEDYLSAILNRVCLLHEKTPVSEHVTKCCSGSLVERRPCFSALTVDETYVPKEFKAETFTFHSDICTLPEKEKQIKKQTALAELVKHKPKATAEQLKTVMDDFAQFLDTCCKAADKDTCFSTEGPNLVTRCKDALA

Inverse relative albumin-binding affinity [1]: 1.05
Human blood plasma stability, intact radiopeptide ([2]; 1 h): 100 ± 1%
Mouse blood plasma stability, intact radiopeptide ([2]; 1 h): 100 ± 1%
Human blood plasma stability, intact radiopeptide ([2]; 4 h): 99 ± 1%
Mouse blood plasma stability, intact radiopeptide ([2]; 4 h): 99 ± 2%
Human blood plasma stability, intact radiopeptide ([2]; 24 h): 95 ± 2%
Mouse blood plasma stability, intact radiopeptide ([2]; 24 h): 89 ± 3%
Albumin-binding properties, relative values (inverse B50 ratio) [4]: 0.66
SMILES: Cc1ccc(CCCC(=O)NCCOCCOCCOCCOCCOCCC(=O)NCCCC[C@H](NC(=O)CN2CCN(CC(=O)O)CCN(CC(=O)O)CCN(CC(=O)O)CC2)C(=O)N[C@@H](CC(=O)O)C(=O)N[C@@H](CC2CCCCC2)C(=O)N[C@@H](Cc2ccccc2)C(=O)N[C@H](CO)C(=O)N[C@H](CCCNC(=N)N)C(=O)N[C@@H](Cc2ccc(O)cc2)C(=O)N[C@@H](CC(C)C)C(=O)N[C@@H](Cc2c[nH]c3ccccc23)C(=O)N[C@@H](CO)C(N)=O)cc1 [[^177Lu]Lu-uPAR-18, metal not drawn]
SPECT/CT: accumulation in HEK-uPAR xenograft [3]: highest at 1 h p.i. and relatively well retained over the following hours
